# Data taken from patent US20200281873A1, “Adamantane or Bicyclic Monoterpenoid Derivatives for Use in the Treatment of Leishmaniasis” (Commissariat a l'Energie Atomique et aux Energies …, priority 2017, published 2020).
# Like-named read-outs stand apart in the source and are kept apart here.
# What was measured:
# [1] = Incubation of VP343 with human hepatic microsomes (LC-MS); assay type: in vitro ADME; conditions: t = 45 min
# Experimental: The metabolites' identification of VP343 was performed after incubation of the compound with hepatic microsomal preparations from mouse, dog and human origin. The assay was performed by mixing VP343 at 5; 4; 2 or 1 μM with CD1 mouse hepatic microsomes (reference MIC255030 Biopredic) at 0.5 mg/mL of protein, or Beagle dog hepatic microsomes (reference MIC257013 Biopredic) at 1 mg/mL of protein, or human hepatic microsomes (reference MIC159882 Biopredic) at 1 mg/mL of protein, together with 1 mM NADPH (reference N1630 Sigma Aldrich), a phase I reaction's cofactor, in a 0.1 M phosphate buffer pH 7.4. Samples were then incubated in a Thermomixer® (Eppendorf) at 37° C. and 300 rotations per minute. After 45 minutes of incubation, the reaction was stopped with acetonitrile (0.5 volume of the experimental incubation volume). The samples' supernatants were then separated from the microsomes by centrifugation at 20,000 g during 10 minutes (Sorvall ST 16, Thermo Fisher Scientific) before analysis by liquid chromatography coupled to mass spectrometry (LC-MS).
# The analysis was performed in two steps: first, on a positive electrospray ionisation source using a Waters Acquity I class UPLC (Ultra Performance Liquid Chromatography) system coupled to a Waters triple quadrupole mass spectrometer (Xevo TQMS) and then on an orbitrap source using a Thermo Fisher UHPLC (Ultra High Performance Liquid Chromatography) system (Ultimate 3000) coupled to a Thermo Fisher orbitrap mass spectrometer (Q Exactive) to confirm the structures of the identified metabolites. VP343 and his metabolites were separated by the UPLC system with a six minutes gradient of acetonitrile containing 0.1% of formic acid in a BEH C18 column (1.7 μm, 2.1×50 mm, Waters) with a mobile phase flow rate of 0.6 mL/min.
# The metabolization of VP343 was studied by incubating the compound with mouse, dog, and human hepatic microsomes. The concentration of VP343 in the microsomal preparations was measured at t=0 and at t=45 min by liquid chromatography-tandem mass spectrometry (LC-MS). […]
# [2] = In vivo toxicity evaluation by oral route in mice (serum biochemical parameters); design: species or system Balb/C female mice
# Experimental: Biochemical parameters relative to VP343 and VP370 toxicity in Balb/C female mice (18-20 g) after a single treatment by oral route at 100 mg/kg under a 0.1 mL volume (=5 mL/kg). Serum were collected one week after the treatment. Excipient: Methylcellulose 1%+Tween 0.1%.
# Dosages were performed with a Cobas 800 (Roche/Hitachi) apparatus.
# [3] = test system: L. infantum intramacrophagic amastigotes; assay: L. donovani infantum/RAW 264.7 macrophage model (intramacrophagic amastigotes, SYBR Green I); assay type: cell-based, Leishmania donovani infantum; conditions: Leishmania infantum, Macrophage
# Experimental: Protocol for Evaluation on the L. donovani infantum/RAW 264.7 Macrophage Model (Intramacrophagic Amastigotes)
# Mouse macrophage cells RAW 264.7 (ATCC) were seeded into a 96-well microplate and maintained in DMEM medium (Applied Biosystems, France) supplemented with 10% heat-inactivated fetal bovine serum in a 5% CO2 incubator at 37° C. for 24 h. Then, the medium was replaced with 100 μL fresh medium containing a suspension of 10^5 L. infantum amastigotes and the incubation time was 16 h. Then, extracellular parasites were eliminated from the medium and 100 μL fresh medium containing compound in various concentrations were added for a 48 h-incubation. Parasite growth was determined by using SYBR® Green I (Life technology, Fisher Scientific, France), a dye with marked fluorescence enhancement upon contact with DNA. The cell lysis suspension was diluted 1:1 in lysis buffer (10 mM NaCl, 1 mM Tris HCl pH8, 2.5 mM EDTA pH 8, 0.05% SDS, 0.01 mg/mL proteinase K and 10×SYBR Green I). Incorporation of SYBR Green I in DNA amplification was measured using the Master epRealplex cycler® (Eppendorf, France) according to the following program to increase the SYBR green incorporation: 90° C. for 1 min, decrease in temperature from 90° C. to 10° C. for 5 min with reading the fluorescence at 10° C. for 1 min and a new reading at 10° C. for 2 min. The EC50 as the concentration inhibiting the parasite growth by 50% was calculated by nonlinear regression using icestimator website 1.2 version: http://www.antimalarial-icestimator.net/MethodIntro.htm.
# [4] = single oral treatment 100 mg/kg, serum one week after treatment
smiles,measurement,setting,value
COc1ccc(Br)cc1CN(C)C12CC3CC(CC(C3)C1)C2 [VP343],VP343 residual concentration,[1]; initial concentration 1 μM,0.41 µM
same,VP343 residual concentration,[1]; initial concentration 2 μM,1.08 µM
same,VP343 residual concentration,[1]; initial concentration 4 μM,1.62 µM
same,Serum AST ± SD,[2]; [4],391 ± 72 U/L
same,Serum AST ± SD (second AST column),[2]; [4],169 ± 34 U/L
same,Serum creatinin,[2]; [4],<18 µM
same,Toxicity after single oral treatment (in words),[2]; single treatment by oral route at 100 mg/kg,did not show toxicity
same,IC50,"[3]; Table II, 3 different experiments, SYBR Green I method, read-out: IC50 intramacrophagic",40 nM
same,IC50,"[3]; cf. Table II, read-out: IC50 (intramacrophage amastigotes)",40 nM
